The values that follow come from US20160074380A1, “Treatment Of Neurodegenerative Diseases With Combination Of Laquinimod And Fingolimod” (TEVA PHARMACEUTICAL INDUSTRIES LTD., priority 2014, published 2016).

Values joined by “and” are separate entries in the source; they are usually repeats but may differ in a detail not shown here. Equal entries are not always repeated. Where two headings read alike, the source gives them in different places.

In data set [1] the test system is reactive astrocytes. Put plainly: NO release in conditioned media from reactive astrocytes (ELISA). Conditions: LPS+IFNγ. Type of data set: cell-based, mice. On the procedure:
(§1) Mice mixed glial cells were cultured as described by McCarthy et al., 1980. Primary mice glial cells were prepared from the cortical of newborn Swiss mice (1 day). Briefly, meninges and blood vessels of the mice cortex were removed and placed in ice-cold medium of L15 containing 2% of PS and 1% of BSA. Tissues were dissociated with 0.25% trypsin-EDTA at 37° C. for 10 min. Cells were then submitted to a supplementary incubation of 15 min at 37° C. in presence of deoxyribonuclease I (final concentration of 0.5 mg/mL). Cells were then pelleted (5 min at 1200 rpm) and trypsinization was stopped by adding DMEM supplemented with 10% FCS, 1 mM of Na/pyruvate (PanBiotech, ref: P04-43100, batch: 3470914) and 2% PS. Cells suspension was mechanically dissociated and filtered through 40 μm diameter nylon meshes (BD Falcon, Ref: 352340). The cells were collected by centrifugation at 1200 rpm/min for 10 min, re-suspended in culture medium and then plated in culture flasks (Dutscher, ref: 690175). Cells were seeded at a density of 1.25×10^5 cells/cm2 and cultured in 5% CO2 at 37° C. Medium was changed three times per week.
(§2) Purification of astrocytes cells was done as described by Kim et al., 2006. After 14 days, the flasks were shaken on a rotary shaker at 200 rpm for 3 h. The resulting cell suspension rich in microglia was removed. Cells remaining in the flasks from which microglia had been harvested correspond to astrocytes at a purity of about 90%. Astrocytes were cultured in DMEM supplemented with 10% FCS, 1 mM of Na/pyruvate and 2% at 5% CO2 and 37° C. in flasks of 25 cm2.
(§3) When reaching confluence, primary astroglial cells were first incubated for 2 hours with Fingolimod (1 nM, 10 nM) or Laquinimod (1 nM, 10 nM, 100 nM, 1 μM, 10 μM) alone or in co-incubation or control medium.
(§4) At the end of 2 hours treatment with test compounds, astrocyte culture was activated with serum-free DMEM containing LPS (100 ng/mL; Sigma, Serotype 026:B6, ref: L2654; batch: 123M4052V) and IFNγ (10 ng/mL; Peprotech; ref: 315-05; batch: 061398 L0513) for 6 hours (Kim and Lee, 2013; Shu et al., 2014; Gresa-Arribas et al., 2012) in absence or presence of test compounds.
(§5) To obtain LPS/INFγ free conditioned media (CM), after 6 hours, cells were washed twice with DMEM and medium was replaced with DMEM supplemented with B27 (2%), L-glutamine (2 mM), PS solution (2%). LCM was collected 24 hrs after. For control, cells were incubated with medium not containing LPS/INFγ. […]
Background: An ELISA detects its analyte on a solid surface through an enzyme-linked reagent.

For data set [2], the system named is reactive astrocytes. Put plainly: IL-6 concentration in conditioned media from reactive astrocytes (cytometry). Type of data set: cell-based, mice. As to conditions: LPS+IFNγ. As for the experimental part:
as §1, §2, §3, §4, §5

The test system of data set [3] is oligodendrocytes. Conditions: inflammatory insults; Rochelle, 2007; cited from earlier work.
The conditions of data set [4]: DA EAE rats, doses 0.03-0.3 mg/kg; Foster, 2007; cited from earlier work.
The test system of data set [5] is cuprizone model. Put plainly: Demyelination and re-myelination in the cuprizone model. Type of data set: in vivo.
The subject of data set [6] is lysolecithin model. Put plainly: Lysolecithin-induced demyelination model. Type of data set: in vivo.
Data set [7] relates to established EAE. The data set can be described thus: Established EAE. Type of data set: in vivo.
Data set [8] deals with oligodendrocytes. The data set can be described thus: Oligodendrocyte survival under inflammatory insults. Type of data set: cell-based.
Data set [9] deals with human astrocytes. The data set can be described thus: Human astrocyte activation and cytokine secretion in vitro. Type of data set: cell-based. An excerpt:
The effect of laquinimod on human astrocyte activation, as investigated in another study, is detailed in FIGS. 9 and 10. […] In unstimulated cells, the NF-κB dimers are sequestered in the cytoplasm by a family of inhibitors, called IκBs (Inhibitor of κB). […] Activation of the NF-κB is initiated by the signal-induced degradation of IκB proteins. This occurs primarily via activation of a kinase called the IκB kinase (IKK). When activated by signals, usually coming from the outside of the cell, the IκB kinase phosphorylates two serine residues located in an IκB regulatory domain. When phosphorylated, the IκB inhibitor molecules are modified by a process called ubiquitination, which than leads them to be degraded by a cell structure called the proteasome. With the degradation of IκB, the NF-κB complex is then freed to enter the nucleus where it can ‘turn on’ the expression of specific genes that have DNA-binding sites for NF-κB nearby. The activation of these genes by NF-κB then leads to the given physiological response, for example, an inflammatory or immune response.

The subject of data set [10] is NF-κB pathway. Put plainly: p65 translocation into the astrocyte nucleus in vivo.
In data set [11] the test system is mouse microglia. Put plainly: Mouse microglia TNF-α secretion upon LPS activation. Type of data set: cell-based. An excerpt: In another study, laquinimod reduced microglial activation in culture. The size of CD14 stained human microglia was increased with LPS activation. Also, in FIG. 13, human (C) or mouse (D) microglia elevated TNF-α secretion upon LPS activation, which was attenuated by laquinimod.

The test system of data set [12] is microglia/macrophages. The data set can be described thus: Microglial activation in EAE-afflicted mice. Conditions: spinal cord of EAE-afflicted mice. Type of data set: in vivo. An excerpt: Laquinimod inhibited microglial activation in EAE in mice. Transcripts encoding markers of activation of microglia/macrophages were increased in the spinal cord of EAE-afflicted mice and decreased in laquinimod-treated animals, as presented in FIG. 15.

Data set [13] deals with lymphocyte counts. Put plainly: Lymphocyte counts over time with laquinimod versus placebo. Type of data set: in vivo. Conditions: laquinimod 0.6 mg group vs placebo or baseline, all visits.
Data set [14] is described as follows: Penetration of intact and disrupted Blood Brain Barrier. Type of data set: in vivo, mice. Conditions: for Kp: mouse, CNS tissue relative to blood, read-out: CNS tissue level, % of the blood concentration. An excerpt: In another study, laquinimod, as a small molecule, penetrated both intact and disrupted Blood Brain Barrier (BBB). In view of FIG. 17, CNS tissue level of laquinimod was 7-8% of the blood concentration in healthy mice and 13% in EAE mice when the BBB was disrupted. Further, 90% of the drug in cerebrospinal fluid (CSF) was active, or free, due to low protein binding and expected also in brain interstitial fluids. Thus, laquinimod targeted the entire brain and not only the lesions.

The mark [15] stands for this setting: Mus musculus, Astrocyte, 1 nM, read-out: % inhibition of IL-6 release.
Setting [16] is: Mus musculus, Astrocyte, 10 nM, read-out: % inhibition of IL-6 release.

For orientation: inhibition means the drop in the measured response relative to a control, in per cent. `CCCCCCCCc1ccc(CCC(N)(CO)CO)cc1` [Fingolimod]: the NO content was 24.39 pg/mL and 24.396 pg/mL in data set [1] (1 nM); 17.37 pg/mL and 17.371 pg/mL in [1] (10 nM). Besides, the inhibition at 0.001 µM amounted to 43.7% in [1] (Mus musculus, Astrocyte, 1 nM) and 23.3% in data set [2] (setting [15]). Also, the inhibition at 0.01 µM was found to be 59.9% in [1] (Mus musculus, Astrocyte, 10 nM) and 32.9% in data set [2] (setting [16]). Moreover, the figures for the IL-6 content in data set [2] (1 nM) and in data set [2] (10 nM) were 5421 pg/mL and 4744 pg/mL, respectively. The oligodendrocyte survival result in [3] is “did protect oligodendrocytes”. For the same compound, the brain/blood ratio result in data set [4] was “about 20”.
For the compound `CCN(C(=O)c1c(O)c2c(Cl)cccc2n(C)c1=O)c1ccccc1` [Laquinimod], the NO content in [1] (1 nM) was 26.44 pg/mL and 26.447 pg/mL; in [1] (10 nM), 21.1 pg/mL and 21.093 pg/mL; in data set [1] (100 nM), 17.98 pg/mL and 17.983 pg/mL; in data set [1] (1 μM) it was 16.11 pg/mL and 16.111 pg/mL. Also, the inhibition at 0.001 µM was 39% in data set [1] (Mus musculus, Astrocyte, 1 nM) and 12.3% in [2] (setting [15]). The inhibition at 0.01 µM in data set [1] (Mus musculus, Astrocyte, 10 nM) was determined as 51.3%; in [2] (setting [16]) it was 10.6%. Testing at 0.1 µM in [1] (Mus musculus, Astrocyte, 100 nM) gave an inhibition of 58.5%. Moreover, the inhibition at 1 µM in data set [1] (Mus musculus, Astrocyte, 1 μM) stood at 62.8%; in [2] (Mus musculus, Astrocyte, 1 μM, read-out: % inhibition of IL-6 release), 62.6%. Besides, the results for the IL-6 content in data set [2] (1 nM), in [2] (10 nM) and in [2] (1 μM) were 6198 pg/mL, 6315 pg/mL and 2640 pg/mL, respectively. Also, the re-myelination entry in [5] (after cuprizone withdrawal) is given as “no effect”. Also, in data set [5] (cuprizone model (non-T cell model of demyelination)), the demyelination result is “significantly less demyelination”. Besides, in data set [6], the lysolecithin-induced demyelination result is on record as “no effect”. Besides, in [7], the clinical disease result is reported as “ameliorates clinical disease”. Further, the “expansion of pre-existing lesions” value in data set [7] was “inhibits further expansion of pre-existing lesions”. In data set [8], the oligodendrocyte survival entry is reported as “does not protect oligodendrocytes”. Moreover, the pro-inflammatory cytokine secretion entry in [9] (human astrocytes in vitro) was “down regulates”. Further, the astrocyte activation result in data set [9] (via the NF-κB pathway) is listed as “interferes with astrocyte activation”. In [10], the “astrocyte activation (p65 translocation into the astrocyte nucleus)” value was “significantly reduced astrocyte activation”. Also, the TNF-α secretion entry in data set [11] is recorded as “attenuated”. Besides, the “transcripts encoding markers of activation of microglia/macrophages” value in data set [12] was “decreased”. The lymphocyte counts entry in data set [13] was “remained stable”. For the same compound, the “active, or free, drug in cerebrospinal fluid (CSF)” value in data set [14] (low protein binding) amounted to 90%. For the same compound, the Kp is 0.13 in [14] (EAE mice, BBB disrupted) and 0.07 to 0.08 in data set [14] (healthy mice).
